Measured values from the NIST ThermoML archive (doi:10.1016/j.jct.2011.11.032).
Numbers after ± are expanded uncertainties.

assay: molar enthalpy of vaporization or sublimation; conditions: 298.15 K; Liquid; Static calorimetry

Row | molar enthalpy [kcal/mol] | SMILES
1 | 13.7 ± 0.311 | COc1ccncc1 [4-methoxypyridine]
2 | 10.8 ± 0.311 | COc1ccccn1 [2-methoxypyridine]
3 | 12.9 ± 0.239 | COc1cccc(OC)n1 [2,6-dimethoxypyridine]
